Consider 1 compound from US8586568B2, “Methods and products for treatment of diseases” (Ampio Pharmaceuticals, Inc., priority 2005, dated 2013).

Common to all, as to format: cell-based, Human
The subject of test [1] is HUVEC cells. Put plainly: Danazol BioCoat Matrigel Invasion Chamber. Particulars: 5% FCS in bottom chamber, 24 hours. Here is the method: BioCoat Matrigel Invasion Chambers were purchased from BD Biosciences (San Jose, Calif.). Inserts were rehydrated at 37° C. with 500 μl HBSS for 2 hours prior to use in humidified incubator. Trypsinized HUVEC cells were washed twice with warm EGM-2 containing 0.1% FCS and added to the upper chamber of the invasion insert at 100,000 cells in a total volume of 250 μl. Danazol and control compounds were added to the upper reservoir at final concentrations of 10 μM and 100 μM. 750 μl EGM-2 supplemented with 5% FCS was added to the bottom chamber to initiate invasion and the plates were incubated for 24 hours. Non-invasive cells were removed from the upper chamber with moistened cotton swabs and then the inserts were washed twice with HBSS. The inserts were then submerged in 10 μM calcein AM prepared in HBSS and incubated for 4 hours. Fluorescence was determined in a microplate reader at 485 nm excitation and 595 nm emission.
All data is presented as representative experiment done in triplicate. Differences between subsets were analyzed using student t-test in Microsoft Excel. P<0.05 was considered statistically significant.

Test [2] concerns HUVEC cells. Put plainly: Danazol effect on HUVEC cell proliferation (Celltiter 96 AQueous One). Particulars: for OD: OD±standard deviation. The method, then:
Primary HUVEC and EGM-2 growth medium were obtained from Cambrex (Walkersville, Md.). The cells were passaged in medium supplemented with 2% fetal calf serum (FCS) in tissue culture flasks at 37° C. and 5% CO2. Subculturing was performed using trypsin when 60-80% confluence was obtained as specified by the supplier.
Cryopreserved ampoules of passage 2 HUVEC cells were thawed and plated in 96 well tissue culture plates at 5,000 cells/cm^2. A 50 mM stock solution of danazol was prepared in ethanol and the FCS in the medium was increased to 5% to keep danazol in solution. The cells were treated with medium containing final concentrations of danazol ranging from 0.1 to 100 μM in triplicates. 24, 48, and 72 hour incubations were performed and cell proliferation was determined utilizing Celltiter 96 AQueous One Solution Cell Proliferation assay from Promega (Madison, Wis.). In short, medium was aspirated from each well and the cells were washed with 200 μl […] buffered saline (HBSS) from Cambrex warmed to 37° C. 100 μl diluted celltiter solution (15 μl stock+85 μl EGM-2 containing 0.1% FCS) were added to each well and incubated for an additional 4 hours. Optical density was determined by microplate reader using a 530 nm filter after blank subtraction and data presented as OD±standard deviation. The final concentration of ethanol in the wells was less then 0.2% and had no effect on cell proliferation or viability.
All data are presented as representative experiment done in triplicate. Differences between subsets were analyzed using student t-test in Microsoft Excel. P<0.05 was considered statistically significant.

Test [3] has as its system HUVEC cells. The experiment in a line: Danazol Endothelial Cell Tube Formation Assay on matrigel plugs. Particulars: 5% FCS, 18 hours. Here is the method:
To investigate the formation of capillary-like structures by HUVEC cells, the Angiogenesis System Endothelial Cell Tube Formation Assay was purchased from BD Biosciences (San Jose, Calif.) and used according to the manufacturers protocol. In brief, 100,000 HUVEC cells were seeded onto rehydrated matrigel plugs in 96 well tissue culture plates in the presence of 5% FCS to induce tube formation. […] After 18 hours the wells were photographed using a Kodak DCS Pro SLR/N digital camera (Rochester, N.Y.) mounted on an inverted microscope. Ethanol treated wells were included to determine if the vehicle had any effects on cell differentiation.

[4] abbreviates: Homo sapiens, HUVEC, 24 h, read-out: percent inhibition of proliferation.
[5] abbreviates: Homo sapiens, HUVEC, 48 h, read-out: percent inhibition of proliferation.
[6] abbreviates: Homo sapiens, HUVEC, 72 h, read-out: percent inhibition of proliferation.

Read-outs that look alike come from different tables or passages of the source.

For the compound `C#C[C@]1(O)CC[C@H]2[C@@H]3CCC4=Cc5oncc5C[C@]4(C)[C@H]3CC[C@@]21C` [danazol, 17α-pregna-2,4-dien-20-yno[2,3-d]-isoxazol-17β-ol], the “effect on cell invasion” value in the test on HUVEC cells [1] (10 μM) and in the test on HUVEC cells [1] (100 μM) was “had no effect” each time. Further, the OD is recorded as 0.798±0.037 in the test on HUVEC cells [2] (0.1 μM, 72 hours); 0.378±0.037 with HUVEC cells [2] (1 μM, 48 hours); 0.484±0.022 in the test on HUVEC cells [2] (1 μM, 72 hours); 0.288±0.037 in the test on HUVEC cells [2] (10 μM, 24 hours); 0.241±0.012 with HUVEC cells [2] (10 μM, 48 hours); 0.229±0.016 in the test with HUVEC cells [2] (10 μM, 72 hours). Further, the OD amounted to 0.162±0.017 in the test on HUVEC cells [2] (100 μM, 24 hours); 0.19±0.033 in the test with HUVEC cells [2] (100 μM, 48 hours); 0.156±0.018 with HUVEC cells [2] (100 μM, 72 hours). For the same compound, the “effect on cell proliferation” value in the test with HUVEC cells [2] (100 μM, all time points) is recorded as “complete arrest of cell proliferation”. For the same compound, the “concentration at which inhibition was significant” value in the test on HUVEC cells [2] (48 hours) was “approximately 1 μM”. For the same compound, the inhibition at 10 µM with HUVEC cells [2] (setting [4]) stood at 30%; in the test with HUVEC cells [2] (setting [5]), 61%; in the test on HUVEC cells [2] (setting [6]), 80%. Besides, the inhibition at 100 µM in the test with HUVEC cells [2] (setting [4]) is 65%; with HUVEC cells [2] (setting [5]), 70%; with HUVEC cells [2] (setting [6]) it was 86%. Moreover, the inhibition at 1 µM with HUVEC cells [2] (setting [5]) was 40%; with HUVEC cells [2] (setting [6]), 57%. For the same compound, the inhibition at 0.1 µM in the test with HUVEC cells [2] (setting [6]) amounted to 28%. In addition, the “tube formation” value was “isolated colonies of HUVEC located in the plug with very few, thin connections or vessel lumen spaces” in the test with HUVEC cells [3] (50 μM); “fewer organized structures with thin and less defined interconnections than controls” with HUVEC cells [3] (danazol 1-50 μM).
